Reference: paper PMC9853328, “Potent Platinum(IV) Prodrugs That Incorporate a Biotin Moiety to Selectively Target Cancer Cells” (Pharmaceutics, 2022)
Like-named read-outs stand apart in the source and are kept apart here.

Assays:
[1] = tested on: ADDP (subclone of A2780) versus A2780 ovarian cancer cell lines; assay: Resistance factor, GI50 in ADDP/GI50 in A2780; assay type: cell-based
HT29 colon cancer cells [2] = tested on: HT29 colon cancer cells; parameters: method as in earlier work; conditions: MTT, same method, taken from the literature; ref [18],[46],[47]; read-out: GI50 ± SEM, HT29; cited from earlier work
U87 glioblastoma cells [3] = tested on: U87 glioblastoma cells; parameters: method as in earlier work; conditions: MTT, same method, taken from the literature; ref [18],[46],[47]; read-out: GI50 ± SEM, U87; cited from earlier work
[4] = tested on: MCF-7 breast cancer cells; parameters: method as in earlier work; conditions: MTT, same method, taken from the literature; ref [18],[46],[47]; read-out: GI50 ± SEM, MCF-7; cited from earlier work
[5] = tested on: A2780 ovarian cancer cells; parameters: method as in earlier work; conditions: MTT, same method, taken from the literature; ref [18],[46],[47]; read-out: GI50 ± SEM, A2780; cited from earlier work
H460 lung cancer cells [6] = tested on: H460 lung cancer cells; parameters: method as in earlier work; conditions: MTT, same method, taken from the literature; ref [18],[46],[47]; read-out: GI50 ± SEM, H460; cited from earlier work
A431 skin cancer cells [7] = tested on: A431 skin cancer cells; parameters: method as in earlier work; conditions: MTT, same method, taken from the literature; ref [18],[46],[47]; read-out: GI50 ± SEM, A431; cited from earlier work
[8] = tested on: Du145 prostate cancer cells; parameters: method as in earlier work; conditions: MTT, same method, taken from the literature; ref [18],[46],[47]; read-out: GI50 ± SEM, Du145; cited from earlier work
[9] = tested on: BE2-C neuroblastoma cells; parameters: method as in earlier work; conditions: MTT, same method, taken from the literature; ref [18],[46],[47]; read-out: GI50 ± SEM, BE2-C; cited from earlier work
SJ-G2 glioblastoma cells [10] = tested on: SJ-G2 glioblastoma cells; parameters: method as in earlier work; conditions: MTT, same method, taken from the literature; ref [18],[46],[47]; read-out: GI50 ± SEM, SJ-G2; cited from earlier work
[11] = tested on: MIA pancreas cancer cells; parameters: method as in earlier work; conditions: MTT, same method, taken from the literature; ref [18],[46],[47]; read-out: GI50 ± SEM, MIA; cited from earlier work
[12] = tested on: cisplatin-resistant ADDP ovarian (subclone of A2780) cancer cells; parameters: method as in earlier work; conditions: MTT, same method, taken from the literature; ref [18],[46],[47]; read-out: GI50 ± SEM, ADDP; cited from earlier work
HT29 colon cancer cells [13] = assay: MTT in vitro cytotoxicity assay, HT29; assay type: cell-based; conditions: MTT, 72 h drug exposure, n = 3; read-out: GI50 ± SEM, HT29
Method: (§1) The in vitro cytotoxicity assays were undertaken at Calvary Mater Hospital, Waratah, NSW, Australia, following a method previously published in the literature. A stock solution for each compound was prepared in DMSO (30 mM) and stored at −20 °C. The cell lines used in the study include HT29 colon, U87 glioblastoma, MCF-7 breast, A2780 ovarian, H460 lung, A431 skin, Du145 prostate, BE2-C neuroblastoma, SJ-G2 glioblastoma, MIA pancreas, and cisplatin-resistant ADDP ovarian (subclone of A2780) cancer cells, as well as the non-cancerous-derived MCF10A breast cell line. The cancer cell lines were cultured in a humidified atmosphere 5% CO2 at 37 °C and maintained in Dulbecco’s modified Eagle’s medium (Trace Biosciences, Sydney, Australia), supplemented with 10% foetal bovine serum, sodium bicarbonate (10 mM), penicillin (100 IU/mL), streptomycin (100 µg/mL), and glutamine (4 mM). The non-cancerous MCF10A cell line was maintained in DMEM:F12 (1:1) cell culture media, with 5% heat inactivated horse serum, supplemented with penicillin (50 IU/mL), streptomycin (50 µg/mL), glutamine (2 mM), HEPES (20 mM), epidermal growth factor (20 ng/mL), hydrocortisone (500 ng/mL), cholera toxin (100 ng/mL), and insulin (10 µg/mL). Cells were plated in duplicate in medium (100 µL) at a density of 2500–4000 cells per well in 96-well plates. On day 0, (24 h after plating) when the cells were in logarithmic growth, medium (100 μL) with or without the test agent was added to each well. The growth inhibitory effects were evaluated after 72 h drug exposure, using the MTT (3-(4,5-dimethylthiazol-2-yl)-2,5-diphenyltetrazolium bromide) assay, with the absorbance read at 540 nm. An eight-point dose–response curve was produced, which was used to determine the concentration at which growth was inhibited by 50% (GI50). This calculation was based on the difference between the optical density values on day 0 and those at the end of drug exposure. […] Experiments were conducted on three separate occasions and GI50 values were reported as the mean and standard error of the mean.

U87 glioblastoma cells [14] = assay: MTT in vitro cytotoxicity assay, U87; assay type: cell-based; conditions: 72 h drug exposure, n = 3, read-out: GI50 ± SEM, U87
Method: as §1

[15] = tested on: MCF-7 breast cancer cells; assay: MTT in vitro cytotoxicity assay, MCF-7; assay type: cell-based; conditions: for GI50: MTT, 72 h drug exposure, n = 3, read-out: GI50 ± SEM, MCF-7
[16] = tested on: A2780 ovarian cancer cells; assay: MTT in vitro cytotoxicity assay, A2780; assay type: cell-based; conditions: 72 h drug exposure, n = 3, read-out: GI50 ± SEM, A2780
Method: as §1

H460 lung cancer cells [17] = assay: MTT in vitro cytotoxicity assay, H460; assay type: cell-based; conditions: 72 h drug exposure, n = 3, read-out: GI50 ± SEM, H460
Method: as §1

A431 skin cancer cells [18] = assay: MTT in vitro cytotoxicity assay, A431; assay type: cell-based; conditions: 72 h drug exposure, n = 3, read-out: GI50 ± SEM, A431
Method: as §1

[19] = tested on: Du145 prostate cancer cells; assay: MTT in vitro cytotoxicity assay, Du145; assay type: cell-based; conditions: MTT, 72 h drug exposure, n = 3; read-out: GI50 ± SEM, Du145
Method: as §1

[20] = tested on: BE2-C neuroblastoma cells; assay: MTT in vitro cytotoxicity assay, BE2-C; assay type: cell-based; conditions: 72 h drug exposure, n = 3, read-out: GI50 ± SEM, BE2-C
Method: as §1

SJ-G2 glioblastoma cells [21] = assay: MTT in vitro cytotoxicity assay, SJ-G2; assay type: cell-based; conditions: 72 h drug exposure, n = 3, read-out: GI50 ± SEM, SJ-G2
Method: as §1

[22] = tested on: MIA pancreas cancer cells; assay: MTT in vitro cytotoxicity assay, MIA; assay type: cell-based; conditions: 72 h drug exposure, n = 3, read-out: GI50 ± SEM, MIA
Method: as §1

[23] = tested on: non-cancerous MCF10A breast cell line; assay: MTT in vitro cytotoxicity assay, MCF10A; assay type: cell-based; conditions: 72 h drug exposure, n = 3, read-out: GI50 ± SEM, MCF10A
Method: as §1

[24] = tested on: cisplatin-resistant ADDP ovarian (subclone of A2780) cancer cells; assay: MTT in vitro cytotoxicity assay, ADDP; assay type: cell-based; conditions: 72 h drug exposure, n = 3, read-out: GI50 ± SEM, ADDP
Method: as §1

[25] = tested on: non-cancerous MCF10A breast cell line; parameters: method as in earlier work; conditions: MTT, same method, taken from the literature; ref [18],[46],[47]; read-out: GI50 ± SEM, MCF10A; cited from earlier work

| Compound | Resistance factor (RF) [1] | GI50 (HT29 colon cancer cells [2]) | GI50 (U87 glioblastoma cells [3]) | GI50 [4] | GI50 [5] | GI50 (H460 lung cancer cells [6]) | GI50 (A431 skin cancer cells [7]) | GI50 [8] | GI50 [9] | GI50 (SJ-G2 glioblastoma cells [10]) | GI50 [11] | GI50 [12] | GI50 (HT29 colon cancer cells [13]) | GI50 (U87 glioblastoma cells [14]) | GI50 [15] | GI50 [16] | GI50 (H460 lung cancer cells [17]) | GI50 (A431 skin cancer cells [18]) | GI50 [19] | GI50 [20] | other results |
| --- | --- | --- | --- | --- | --- | --- | --- | --- | --- | --- | --- | --- | --- | --- | --- | --- | --- | --- | --- | --- | --- |
| O=C1[O][Pt]2([NH][C@@H]3CCCC[C@H]3[NH]2)[O]C1=O [Oxaliplatin, oxaliplatin] | 5.138 | 900 ± 200 nM | 1800 ± 200 nM | 500 ± 100 nM | 160 nM | 1600 ± 100 nM | 4100 ± 500 nM | 2900 ± 400 nM | 900 ± 200 nM | 3000 ± 1200 nM | 900 ± 200 nM | 822 ± 130 nM | – | – | – | – | – | – | – | – | – |
| COc1cc[n+]2c3c1ccc1c(OC)cc[n+](c13)[Pt-2]21[NH2+][C@H]2CCCC[C@@H]2[NH2+]1.[Cl-].[Cl-] [47OMESS(II)] | 0.739 | – | – | – | – | – | – | – | – | – | – | – | 120 ± 16 nM | 390 ± 60 nM | 150 ± 45 nM | 230 ± 7 nM | 500 ± 58 nM | 350 ± 26 nM | 85 ± 4.8 nM | 2600 ± 260 nM | selectivity towards MCF-7 compared to MCF10A (cytotoxicity) ([15]; GI50 MCF10A versus GI50 MCF-7): 3 fold; GI50 (SJ-G2 glioblastoma cells [21]): 1300 ± 67 nM; GI50 [22]: 240 ± 42 nM; GI50 [23]: 430 ± 37 nM; GI50 [24]: 170 ± 10 nM |
| O=[N+]([O-])[O-].O=[N+]([O-])[O-].[OH][Pt-2]12([OH])([NH2+][C@H]3CCCC[C@@H]3[NH2+]1)[n+]1cccc3ccc4ccc[n+]2c4c31 [PHENSS(IV)] | 1.625 | 710 ± 300 nM | 4900 ± 610 nM | 16000 ± 4500 nM | 800 ± 84 nM | 1700 ± 200 nM | 4300 ± 530 nM | 310 ± 92 nM | 3000 ± 530 nM | 1700 ± 350 nM | 3400 ± 2200 nM | 1300 ± 350 nM | – | – | – | – | – | – | – | – | GI50 [25]: 1700 ± 200 nM |
| Cc1cc2ccc[n+]3c2c2c1ccc[n+]2[Pt-2]31([OH])([OH])[NH2+][C@H]2CCCC[C@@H]2[NH2+]1.O=[N+]([O-])[O-].O=[N+]([O-])[O-] [5MESS(IV)] | 1.636 | – | – | – | – | – | – | – | – | – | – | – | 150 ± 9 nM | 830 ± 170 nM | 560 ± 200 nM | 110 ± 26 nM | 180 ± 32 nM | 240 ± 7 nM | 36 ± 3.2 nM | 1100 ± 180 nM | GI50 (SJ-G2 glioblastoma cells [21]): 600 ± 74 nM; GI50 [22]: 290 ± 34 nM; GI50 [23]: 220 ± 26 nM; GI50 [24]: 180 ± 24 nM |
